Data as given in PMC6320249 (ACS chemical biology, 2015).

Legend:
Gcn5 [1] = target: T1, Gcn5 (Homo sapiens, UniProt Q92830); assay: Microfluidic mobility shift KAT assay, Gcn5 with FITC-H3; format: biochemical; details: for inhibition of Gcn5 in pilot screen: acetyl-CoA 1 μM, unicate, hydroxylamine quench; for detergent sensitivity of Gcn5 inhibition: low (0.01%) compared to high (0.05%) Triton-X
p300 = target: T2, p300 (Homo sapiens, UniProt Q09472); assay: Microfluidic mobility shift KAT assay, p300 with FITC-H4; format: biochemical
T2 sequence (Q09472 1195-1662): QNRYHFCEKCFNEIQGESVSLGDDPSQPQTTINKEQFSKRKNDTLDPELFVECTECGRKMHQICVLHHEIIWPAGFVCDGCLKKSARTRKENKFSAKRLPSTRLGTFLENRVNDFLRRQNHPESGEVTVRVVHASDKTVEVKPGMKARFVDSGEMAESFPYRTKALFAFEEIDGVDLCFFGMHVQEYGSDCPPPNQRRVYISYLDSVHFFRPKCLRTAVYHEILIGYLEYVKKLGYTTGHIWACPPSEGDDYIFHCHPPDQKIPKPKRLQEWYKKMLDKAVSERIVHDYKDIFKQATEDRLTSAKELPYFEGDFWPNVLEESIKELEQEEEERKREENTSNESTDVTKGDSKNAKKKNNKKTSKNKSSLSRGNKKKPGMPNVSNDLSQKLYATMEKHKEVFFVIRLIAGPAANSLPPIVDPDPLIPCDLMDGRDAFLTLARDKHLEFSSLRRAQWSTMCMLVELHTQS

Gcn5 [2] = target: T1, Gcn5; assay: Real-time kinetic monitoring of Gcn5-catalyzed acetylation; format: biochemical; details: first 25 min vs last 25 min of 100 min; uninhibited enzyme = 1
HepG2 cells = assay: Effect of garcinol on acetylation in HepG2 cells; format: cell-based
cell viability = assay: Cell viability / toxicity; format: cell-based; details: at concentrations of ~60 μM

T1 sequence (Q92830 497-662): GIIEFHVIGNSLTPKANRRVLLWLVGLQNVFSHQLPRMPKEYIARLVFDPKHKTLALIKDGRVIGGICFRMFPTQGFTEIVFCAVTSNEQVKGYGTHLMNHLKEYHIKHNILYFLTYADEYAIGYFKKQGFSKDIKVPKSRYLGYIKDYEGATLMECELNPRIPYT

SMILES | inhibition of Gcn5 in pilot screen (Gcn5 [1]; compound 40 μM) | effect on p300 in pilot screen (in words) (p300; compound 40 μM) | detergent sensitivity of Gcn5 inhibition (Gcn5 [1]) | time dependence value (ratio of acetylation rates at early/late intervals) (Gcn5 [2]) | further results
CCCCCCCc1ccc(CCc2cccc(O)c2C(=O)O)cc1 [MG-149] | greater than 40% |  |  |  | 
O=C1c2c(O)ccc(O)c2C(=O)c2c(NCCNCCO)ccc(NCCNCCO)c21 [mitoxantrone] |  | selective p300 activation |  |  | 
C=C(C)[C@@H](CC=C(C)C)C[C@@]12C[C@@H](CC=C(C)C)C(C)(C)[C@@](CC=C(C)C)(C(=O)C(C(=O)c3ccc(O)c(O)c3)=C1O)C2=O [garcinol] |  | Selective inhibition of p300 | significantly greater inhibitory activity | > 1 | detergent sensitivity of p300 inhibition (p300; low (0.01%) compared to high (0.05%) Triton-X): significantly greater inhibitory activity; effect on Gcn5 in pilot screen (in words) (Gcn5 [1]; compound 40 μM): did not manifest as a Gcn5 hit; lowest concentration with effects on acetylation (HepG2 cells): ~ 25 μM; toxicity (cell viability): toxic
Cc1cc2c(C(C)C)c(O)c(O)c(C=O)c2c(O)c1-c1c(C)cc2c(C(C)C)c(O)c(O)c(C=O)c2c1O [gossypol] |  |  | detergent-sensitive inhibition | > 1 | inhibition at 40 µM (Gcn5 [1]; read-out: inhibition of Gcn5 in pilot screen): > 40%
CC(=O)N[C@@H](CCCCNC(=O)CSCCNC(=O)CCNC(=O)[C@H](O)C(C)(C)COP(=O)(O)OP(=O)(O)OC[C@H]1O[C@@H](n2cnc3c(N)ncnc32)[C@H](O)[C@@H]1OP(=O)(O)O)C(N)=O [Lys-CoA] | greater than 40% |  |  |  | inhibition of p300 in pilot screen (p300; compound 40 μM, acetyl-CoA 1 μM, unicate, hydroxylamine quench): greater than 40%; p300 versus Gcn5 selectivity in pilot screen (in words) (p300; compound 40 μM, p300 compared to Gcn5): inhibited p300 considerably more strongly than Gcn5
